# Results: patent US20050256034A1, “Dioxolane analogs for improved inter-cellular delivery” (priority 2000, published 2005)
# Where a name gives a salt, the structure may show the parent alone. Read-outs that look alike come from different tables or passages of the source.
# Test: 3H-Thymidine Incorporation Assay (24 hr drug, wash, another 48 hr; 72 hr assay)
# Type: cell-based
# Conditions: for Factor (Resistance Factor = Ratio of dCK- on Wild-type CCRF-CEM): ratio of IC50 CEM/dCK- to IC50 CCRF-CEM, 24 h exposure
# [1] = NCI-H460, read-out: IC50 in μM (3H-TdR incorporation at 72 hr) H-460 24 h, H-460 human lung carcinoma, 24 h exposure to drug, wash, another 48 hr
# [2] = CCRF-CEM, read-out: IC50 in μM (3H-TdR incorporation at 72 hr) CEM/dCK- 24 h, CEM/dCK- (CCRF-CEM deoxycytidine kinase-deficient), 24 h exposure to drug, wash, another 48 hr
SMILES,Factor (Resistance Factor = Ratio of dCK- on Wild-type CCRF-CEM),also measured
"CCC(C)(C)OC(C)OC[C@H]1OC[C@@H](n2ccc(N)nc2=O)O1 (mixture of isomers) [Compound 117, 4-AMINO-1-{2-[1-(1,1-DI- METHYL-PROPOXY)-ETH- OXYMETHYL]-[1,3]DI- OXOLAN-4-YL}-1H-PYRI- MIDIN-2-ONE]",494,
CC(=O)OC[C@H]1OC[C@@H](n2ccc(N)nc2=O)O1 [Compound 27],,"IC50 (NCI-H460, read-out: IC50 in μM (3H-TdR incorporation at 72 hr) H-460 (72 h), H-460 human lung carcinoma, 72 h exposure): 0.0053 µM"
"Nc1ccn([C@@H]2CO[C@H](COC3CCCCO3)O2)c(=O)n1 (some centres unmarked) [Compound 41, 4-AMINO-1-[2-(TETRA- HYDRO-PYRAN-2-YLOXY- METHYL)-[1,3]DI- OXOLAN-4-YL]-1H-PYRI- MIDIN-2-ONE]",5,
"O=C(Nc1ccn([C@@H]2CO[C@H](COC(=O)Oc3ccccc3)O2)c(=O)n1)Oc1ccccc1 [Compound 43, CARBONIC ACID 4-(2-OXO-4-PHENOXY- CARBONYLAMINO-2H-PYRI- MIDIN-1-YL)-[1,3]DI- OXOLAN-2-YLMETH- YL ESTER PHENYL ESTER]","1,000,000",
"O=C(Nc1ccn([C@@H]2CO[C@H](CO)O2)c(=O)n1)Oc1ccccc1 [Compound 44, [1-(2-HYDROXYMETHYL-[1,3]DI- OXOLAN-4-YL)-2-OX- O-1,2-DIHYDRO-PYRI- MIDIN-4-YL]-CARBAMIC ACID PHENYL ESTER]","1,300",
"CCOC(=O)Nc1ccn([C@@H]2CO[C@H](CO)O2)c(=O)n1 [Compound 45, [1-(2-HYDROXYMETHYL-[1,3]DI- OXOLAN-4-YL)-2-OX- O-1,2-DIHYDRO-PYRI- MIDIN-4-YL]-CARBAMIC ACID ETHYL ESTER]",63,
"CCOC(=O)Nc1ccn([C@@H]2CO[C@H](COC(=O)OCC)O2)c(=O)n1 [Compound 47, CARBONIC ACID 4-(4-ETH- OXYCARBONYLAMINO-2-OX- O-2H-PYRIMIDIN-1-YL)-[1,3]DI- OXOLAN-2-YL- METHYL ESTER ETHYL ESTER]",34,
"Nc1ccn([C@@H]2CO[C@H](COC(=O)Cc3ccccc3)O2)c(=O)n1 [Compound 52, (2S,4S)-2-PHENYL- ACETOXYMETHYL-4-CYTO- SIN-1′-YL-1,3-DI- OXOLANE]",400,
"Nc1ccn([C@@H]2CO[C@H](COCOCc3ccccc3)O2)c(=O)n1 [Compound 56, 4-AMINO-1-(2-BENZYLOXY- METHOXYMETHYL-[1,3]DI- OXOLAN-4-YL)-1H-PYRI- MIDIN-2-ONE]",,"IC50 (MCF7, read-out: IC50 in μM (3H-TdR incorporation at 72 hr) MCF-7 24 h, MCF-7 human breast carcinoma, 24 h exposure to drug, wash, another 48 hr): 2 µM; IC50 [1]: 7 µM"
"COc1ccc(OC(=O)Nc2ccn([C@@H]3CO[C@H](COC(=O)Oc4ccc(OC)cc4)O3)c(=O)n2)cc1 [Compound 63, CARBONIC ACID 4-[4-(4-METH- OXY-PHENOXY- CARBONYLAMINO)-2-OX- O-2H-PYRIMIDIN-1-YL]-[1,3]DI- OXOLAN-2-YLMETHYL ESTER 4-METH- OXY-PHENYL ESTER]","2,778",
"CCCCC(C)C(=O)OC[C@H]1OC[C@@H](n2ccc(/N=C/N(C)C)nc2=O)O1 (stereo partly drawn) [Compound 64, (2S,4S)-2-(2″-METHYL-HEXANO- ICOXYMETHYL)-4-(4′-NN-DI- METHYLAMINOMETHYLENE-CYTO- SIN-1′-YL)-1,3-DI- OXOLANE]","2,000",
"CC(C)OC(=O)OCOC[C@H]1OC[C@@H](n2ccc(N)nc2=O)O1.O=C(O)C(F)(F)F.O=C(O)C(F)(F)F [Compound 68, CARBONIC ACID 4-(4-A- MINO-2-OXO-2H-PYRI- MIDIN-1-YL)-[1,3]DI- OXOLAN-2-YL- METHOXYMETHYL ESTER ISOPROPYL ESTER TRIFLUOROACETIC ACID SALT]","3,333",
"CC(C(=O)OC[C@H]1OC[C@@H](n2ccc(N)nc2=O)O1)c1ccccc1 (stereo partly drawn) [Compound 69, (2S,4S)-2-(2″-METHYL- PHENYLACETOXY)METH- YL-4-CYTOSIN-1′-YL-1,3-DI- OXOLANE]",,IC50 [1]: 0.045 µM
"N=C(OC[C@H]1OC[C@@H](n2ccc(N)nc2=O)O1)C(Cl)(Cl)Cl [Compound 79, 2,2,2-TRICHLORO-ACETI- MIDIC ACID 4-(4-A- MINO-2-OXO-2H-PYRI- MIDIN-1-YL)-[1,3]DI- OXOLAN-2-YL- METHYL ESTER]","4,500",IC50 [2]: 63 µM
"COC(=O)CCCC(=O)Nc1ccn([C@@H]2CO[C@H](CO)O2)c(=O)n1 [Compound 81, 4-[1-(2-HYDROXYMETHYL-[1,3]DI- OXOLAN-4-YL)-2-OX- O-1,2-DIHYDRO-PYRI- MIDIN-4-YL- CARBAMOYL]-BUTYRIC ACID METHYL ESTER]",83,
"Nc1ccn([C@@H]2CO[C@H](COC(=O)CCCCCNCc3ccccc3)O2)c(=O)n1 [Compound 83, 6-Benzylamino-hexanoic acid 4-(4-amino-2-oxo-2H-pyri-midin-1-yl)-[1,3]di-oxolan-2-yl-methyl ester bis trifluoroacetate salt]",,"Factor (Resistance Factor = Ratio of dCK- on Wild-type CCRF-CEM) (bis trifluoroacetate salt): 4,545"
"Nc1ccn([C@@H]2CO[C@H](COC(=O)CCCCCNCc3ccccc3)O2)c(=O)n1 [Compound 84, 6-Benzylamino-hexanoic acid 4-(4-amino-2-oxo-2H-pyri-midin-1-yl)-[1,3]di-oxolan-2-ylmethyl ester]","5,000",IC50 [2]: 60 µM
"Nc1ccn([C@@H]2CO[C@H](CO[C@@H]3O[C@H](CO)[C@@H](O)[C@H]3O)O2)c(=O)n1.O=C(O)C(F)(F)F [Compound 85, 4-AMINO-1-[2-(3,4-DI- HYDROXY-5-HYDROXY- METHYL-TETRA- HYDROFURAN-2-YLOXY- METHYL)-[1,3]DI- OXOLAN-4-YL]-1HPYIMI- DIN-2-ONE, TRIFLUOROACETIC ACID SALT]",38,
"O=C(O)C(F)(F)F.O=c1nc(NC/C=C/c2ccccc2)ccn1[C@@H]1CO[C@H](CO)O1 [Compound 89, 1-(2-HYDROXYMETHYL-[1,3]DI- OXOLAN-4-YL)-4-(3-CIN- NAMYL)-1H-PYRI- MIDIN-2-ONE TRIFLUORO-ACETATE SALT]",40,
"Nc1ccn([C@@H]2CO[C@H](COC/C=C/c3ccccc3)O2)c(=O)n1.O=C(O)C(F)(F)F [Compound 90, 4-AMINO-1-[2-(3-CIN- NAMYLOXYMETHYL)-[1,3]DI- OXOLAN-4-YL]-1H-PYRI- MIDIN-2-ONE TRIFLUOROACETATE SALT]",1.5,
"CC(OC[C@H]1OC[C@@H](n2ccc(N)nc2=O)O1)OC1CCCCC1 (some centres unmarked) [Compound 92, 4-AMINO-1-[2-(1-CYCLO- HEXYLOXY-ETH- OXYMETHYL)-[1,3]DI- OXOLAN-4-YL]-1H-PYRI- MIDIN-2-ONE]",77,
"CCCCC(CC)C(=O)Nc1ccn([C@@H]2CO[C@H](CO)O2)c(=O)n1 (some centres unmarked) [Compound 99, 2-ETHYL-HEXANOIC ACID [1-(2-HYDROXYMETHYL-[1,3]DI- OXOLAN-4-YL)-2-OX- O-1,2-DIHYDRO-PYRI- MIDIN-4-YL]-AMIDE]",>20,
"O=C(Nc1ccn([C@@H]2CO[C@H](COC(=O)C34CC5CC(CC(C5)C3)C4)O2)c(=O)n1)OCc1ccccc1 [Compound 101, ADAMANTANE-1-CARBOXYLIC ACID 4-(4-BENZYL- OXYCARBONYLAMINO-2-OX- O-2H-PYRIMIDIN-1-YL)-[1,3]DI- OXOLAN-2-YLMETHYL ESTER]",44,
"O=C(Nc1ccn([C@@H]2CO[C@H](COC(=O)C34CC5CC(CC(C5)C3)C4)O2)c(=O)n1)C12CC3CC(CC(C3)C1)C2 [Compound 102, ADAMANTANE-1-CARBOXYLIC ACID 4-{4-[(ADAMANTANE-1-CAR- BONYL)-AMINO]-2-OX- O-2H-PYRIMIDIN-1-YL}-[1,3]DI- OXOLAN-2-YLMETHYL ESTER]",27,
"O=C(Nc1ccn([C@@H]2CO[C@H](COC(=O)Oc3ccc(Cl)cc3)O2)c(=O)n1)Oc1ccc(Cl)cc1 [Compound 103, CARBONIC ACID 4-[4-(4-CHLORO-PHENOXY- CARBONYLAMINO)-2-OX- O-2H-PYRIMIDIN-1-YL]-[1,3]DI- OXOLAN-2-YLMETHYL ESTER 4-CHLORO-PHENYL ESTER]","4,545",
"O=C(Nc1ccn([C@@H]2CO[C@H](CO)O2)c(=O)n1)Oc1ccc(Cl)cc1.O=C(O)C(F)(F)F [Compound 104, [1-(2-HYDROXYMETHYL-[1,3]DI- OXOLAN-4-YL)-2-OX- O-1,2-DIHYDRO-PYRI- MIDIN-4-YL]-CARBAMIC ACID 4-CHLORO-PHENYL ESTER TRIFLUOROACETATE SALT]",>476,
"Nc1ccn([C@@H]2CO[C@H](COC(=O)Oc3ccc(Cl)cc3)O2)c(=O)n1.O=C(O)C(F)(F)F [Compound 105, CARBONIC ACID 4-(4-A- MINO-2-OXO-2H-PYRI- MIDIN-1-YL)-[1,3]DI- OXOLAN-2-YLMETHYL ESTER 4-CHLORO-PHENYL ESTER TRIFLUOROACETATE SALT]",2 393,
"O=C(NCc1ccccc1)Nc1ccn([C@@H]2CO[C@H](CO)O2)c(=O)n1 [Compound 108, 1-BENZYL-3-[1-(2-HYDROXY- METHYL-[1,3]DI- OXOLAN-4-YL)-2-OX- O-1,2-DIHYDRO-PYRI- MIDIN-4-YL]-UREA]",>29,
"O=C(NCc1ccccc1)Nc1ccn([C@@H]2CO[C@H](COC(=O)NCc3ccccc3)O2)c(=O)n1 [Compound 109, BENZYL-CARBAMIC ACID 4-[4-(3-BEN- ZYL-UREIDO)-2-OX- O-2#H!-PYRIMIDIN-1-YL]-[1,3]DI- OXOLAN-2-YLMETHYL ESTER]",>100,
